The test system of the experiment is C. jeikeium. Description: modified disc diffusion assay, C. jeikeium. It counts as cell-based, Corynebacterium jeikeium. To be noted: 10 μL extract per disc; vancomycin 5 μg disc; aerobic, 37° C., 24 hours. The procedure:
Evaluation of antibacterial activity screening of the T. ferdinandiana fruit and leaf extracts was assessed using a modified disc diffusion assay.
100 μL of each individual bacteria (C. jeikeium, B. linens, P. acnes and S. epidermidis) was grown separately in 20 mL of the appropriate broth until an approximate count of 10^8 cells/mL was reached.
A volume of 100 μL of each bacterial suspension was spread onto agar plates and the extracts tested for antibacterial activity using 5 mm sterilised filter paper discs.
C. jeikeium cultures were spread onto nutrient agar plates supplemented with 300 μL Tween 80/L of agar.
Discs were infused with 10 μL of the individual extracts, allowed to dry and placed onto inoculated plates. The plates were left to stand at 4° C. for 2 hours before incubation.
Plates inoculated with B. linens, S. epidermidis or C. jeikeium cultures were incubated aerobically at 37° C. for 24 hours.
The diameters of the inhibition zones were measured to the closest whole millimetre. Each assay was completed in at least triplicate. […]
The ability of T. ferdinandiana leaf and fruit extracts to inhibit the growth of bacterial species under test associated with the production of body and foot odours were assessed. […]

Turning to `CN[C@H](CC(C)C)C(=O)N[C@H]1C(=O)N[C@@H](CC(N)=O)C(=O)N[C@H]2C(=O)N[C@H]3C(=O)N[C@H](C(=O)N[C@H](C(=O)O)c4cc(O)cc(O)c4-c4cc3ccc4O)[C@H](O)c3ccc(c(Cl)c3)Oc3cc2cc(c3O[C@@H]2O[C@H](CO)[C@@H](O)[C@H](O)[C@H]2O[C@H]2C[C@](C)(N)[C@H](O)[C@H](C)O2)Oc2ccc(cc2Cl)[C@H]1O` [vancomycin], the “growth inhibitory activity against C. jeikeium (zones of inhibition)” value is “good inhibitor”.

The values above are taken from patent publication US20200016062A1, “TERMINALIA FERDINANDIANA LEAF EXTRACT AND PRODUCTS CONTAINING EXTRACT OF TERMINALIA FERDINANDIANA LEAF” (RISING PHOENIX INDUSTRIES PTY LTD, priority 2016, published 2020).
